Source: patent US6207399A, “Methods of determining endogenous thrombin potential (ETP) and thrombin substrates for use in said methods” (Hemker; Hendrik Coenraad, priority 1995, dated 2001)
Like-named read-outs stand apart in the source and are kept apart here. Square brackets hold non-standard residues; d marks the D form. Peptide text beside a SMILES is read from it. * marks the point of attachment. pNA = O=[N+]([O-])c1ccc(N*)cc1; Nle = CCCC[CH](N)C(=O)O; Pip = O=C(O)[CH]1CCCCN1; Boc = CC(C)(C)OC(=O)*; Bz = O=C(c1ccccc1)*; CH2Cl = ClC*

What was measured:
factor Xa [1] = molecular target: T1, factor Xa (Homo sapiens, UniProt P00742); test: Kinetics of hydrolysis of substrates by human factor Xa in buffer A at 37° C. (Example 2, Table 2); type: biochemical
T1 construct: human factor Xa samples; gift of Dr. T. Lindhout (University of Limburg, Maastricht)
T1 sequence (P00742 41-179 limits assumed): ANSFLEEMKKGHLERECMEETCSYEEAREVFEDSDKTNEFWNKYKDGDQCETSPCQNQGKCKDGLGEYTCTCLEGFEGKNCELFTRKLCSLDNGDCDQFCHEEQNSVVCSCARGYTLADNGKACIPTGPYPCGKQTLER
T1 sequence (P00742 235-488 limits assumed): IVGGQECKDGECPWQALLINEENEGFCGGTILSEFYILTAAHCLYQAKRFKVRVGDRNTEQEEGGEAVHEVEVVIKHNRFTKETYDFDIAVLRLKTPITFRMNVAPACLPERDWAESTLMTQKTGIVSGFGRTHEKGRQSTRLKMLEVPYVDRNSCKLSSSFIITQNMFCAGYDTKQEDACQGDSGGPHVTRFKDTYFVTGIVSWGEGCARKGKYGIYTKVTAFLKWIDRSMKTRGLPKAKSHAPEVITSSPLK
Protocol: (§1) Kinetic parameters: The hydrolysis experiments were run in buffer A at 37° C. The liberation of p-nitroaniline was monitored at 405 nm in a dual wavelength (405-546 nm) spectrophotometer made in our workshop, using a personal computer for data recording. In a polystyrene microcuvette (total volume 500 μL), buffer A and substrate solution were added to obtain a final substrate concentration between 1 to 2000 μM. After 5 min of incubation at 37° C., enzyme solution was added to achieve a final concentration between 0.5 to 100 nM. The measurement was carried out at 37° C. in a thermostated cuvette-holder. The Michaelis constant (Km) and the catalytic constant (kcat) were obtained by measuring initial reaction velocities at different substrate concentrations. The data obtained were fitted by linear regression on the Michaelis-Menten equation.
(§2) Kinetic parameters: In a preliminary experiment, the substrate was hydrolyzed under the following conditions: enzyme concentration: 10 to 20 nM, substrate concentration: 200 μM in buffer A to get an impression of the initial velocity. […] The results are given in table 1 and 2 for thrombin and factor Xa respectively. The Km and kcat for each substrate were determined from the initial velocities measured for at least six substrate concentrations in the concentration range as given. The enzyme concentration used gives a good signal to noise ratio. The data given are obtained from one or two experiments. The data from table 1 and 2 were only used as the first selection criterion to get a rough impression of the hydrolysis behaviour. Notwithstanding the preliminary character of the measurement it was helpful in the design of the substrates of our interest.

human α-thrombin [2] = molecular target: T2, human α-thrombin (Homo sapiens, UniProt P00734); test: Kinetics of hydrolysis of substrates by human α-thrombin in buffer A at 37° C. (Example 2, Table 1); type: biochemical
T2 construct: Pure human α-thrombin; gift of Dr. T. Lindhout (University of Limburg, Maastricht)
Protocol: as §1, §2

factor Xa [3] = molecular target: T1, factor Xa; test: Kinetic parameters of hydrolysis of the substrates by factor Xa in buffer A at 37° C. (Example 4, Table 3); type: biochemical; conditions: buffer A, 37° C., 50 nM factor Xa
Protocol: as §1, with “200” for “1”, “50” for “100”, “measuring the” for “measuring”
(§3) Kinetic parameters: The Km and kcat values for each substrate were determined at an enzyme concentration of 0.5-50 nM (thrombin) and 50 nM factor Xa. From the initial reaction velocities, measured for at least six substrate concentrations between 200 and 2000 μM, the Km and kcat values were calculated by linear regression on the Michaelis-Menten curve. Table 3 gives an overview of the kinetic parameters of the different substrates hydrolyzed by thrombin and by factor Xa in buffer A.

thrombin [4] = molecular target: T3, thrombin (Homo sapiens, UniProt P00734); test: Kinetic parameters of hydrolysis of the substrates by thrombin in buffer A at 37° C. (Example 4, Table 3); type: biochemical; design: Pure human α-thrombin; gift of Dr. T. Lindhout (University of Limburg, Maastricht); conditions: buffer A, 37° C.
Protocol: as §1, with “200” for “1”, “50” for “100”, “measuring the” for “measuring”
as §3

thrombin [5] = conditions: Svendsen et al; cited from earlier work
thrombin [6] = conditions: Serbio patent EP-B-0 280 610; cited from earlier work
plasmin = conditions: Serbio patent EP-B-0 280 610; cited from earlier work
Factor Xa [7] = conditions: Serbio patent EP-B-0 280 610; cited from earlier work
protein C = conditions: Serbio patent EP-B-0 280 610; cited from earlier work
[8] = Water solubility of the substrates; type: physicochemical
thrombin [9] = molecular target: T3, thrombin; conditions: Angliker et al; cited from earlier work
human α-thrombin [10] = molecular target: T2, human α-thrombin; conditions: from Hemker H.C. et al. (1993); cited from earlier work
thrombin [11] = molecular target: T3, thrombin; design: Pure human α-thrombin; gift of Dr. T. Lindhout (University of Limburg, Maastricht); conditions: SQ68 reference, same values as Table 1 entry 17 (from Hemker et al. 1993); cited from earlier work
factor Xa [12] = molecular target: T1, factor Xa; conditions: SQ68 reference, same values as Table 2 entry 17; cited from earlier work
factor Xa [13] = molecular target: T1, factor Xa; conditions: entry marked ^a (Hemker et al. 1993, footnote of Table 1); cited from earlier work

CC(C)[C@H](NC(=O)CNC(=O)OC(C)(C)C)C(=O)N[C@@H](CCCNC(=N)N)C(=O)Nc1ccc([N+](=O)[O-])cc1.Cl [Boc-Gly-Val-Arg-pNA.HCl] (Boc-Gly-Val-Arg-pNA)
Km (factor Xa [1]): 959 µM | kcat (factor Xa [1]): 1.90 s⁻¹ | kcat /Km (factor Xa [1]): 1980 M/s | Km (human α-thrombin [2]): 244 µM | kcat (human α-thrombin [2]): 11.2 s⁻¹ | kcat /Km (human α-thrombin [2]): 45900 M/s | Factor Xa kcat (factor Xa [3]): 3.51 s⁻¹ | Factor Xa kcat /Km (factor Xa [3]): 1310 M/s | Km (factor Xa [3]): 2680 µM | Km (thrombin [4]): 244 µM | Thrombin kcat (thrombin [4]): 11.2 s⁻¹ | Thrombin kcat /Km (thrombin [4]): 45900 M/s

CC(C)[C@H](NC(=O)[C@H](Cc1ccccc1)NC(=O)c1ccccc1)C(=O)N[C@@H](CCCNC(=N)N)C(=O)Nc1ccc([N+](=O)[O-])cc1 [Benzoyl-Phe-Val-Arg-p-nitroanilide] (Bz-Phe-Val-Arg-pNA)
kcat /Km (thrombin [5]): 90×10^-7 [(NIH units/liter)s]^-1

CC(C)[C@H](NC(=O)[C@@H](N)Cc1ccccc1)C(=O)N[C@@H](CCCNC(=N)N)C(=O)Nc1ccc([N+](=O)[O-])cc1 [H-Phe-Val-Arg-p-nitroanilide] (H-Phe-Val-Arg-pNA)
factor by which poorer substrate for thrombin than Benzoyl-Phe-Val-Arg-p-nitroanilide (thrombin [5]): ≥ 100

COC(=O)CC(=O)N1CCC[C@H]1C(=O)N[C@@H](CCCNC(=N)N)C(=O)Nc1ccc([N+](=O)[O-])cc1 [CH3 O--CO--CH2 --CO-L-Pro-L-Arg-pNA]
rate of hydrolysis for thrombin (thrombin [6]): 0.68 | rate of hydrolysis for plasmin (plasmin): 0.230 | rate of hydrolysis for Factor Xa (Factor Xa [7]): 0.14 | rate of hydrolysis for protein C (protein C): 0.83

CC(C)[C@H](NC(=O)CN)C(=O)N[C@@H](CCCNC(=N)N)C(=O)Nc1ccc([N+](=O)[O-])cc1.Cl.Cl [2HCl.H-Gly-Val-Arg-pNA] (H-Gly-Val-Arg-pNA)
Km (factor Xa [1]): 2680 µM | kcat (factor Xa [1]): 3.51 s⁻¹ | kcat /Km (factor Xa [1]): 1310 M/s | Km (human α-thrombin [2]): 1640 µM | kcat (human α-thrombin [2]): 16.54 s⁻¹ | kcat /Km (human α-thrombin [2]): 10100 M/s | Factor Xa kcat (factor Xa [3]): 2.84 s⁻¹ | Factor Xa kcat /Km (factor Xa [3]): 649 M/s | Km (factor Xa [3]): 4380 µM | Km (thrombin [4]): 3230 µM | Thrombin kcat (thrombin [4]): 25.4 s⁻¹ | Thrombin kcat /Km (thrombin [4]): 7880 M/s

CCCCC(NC(=O)C1CCCCN1C(=O)C(N)Cc1ccccc1)C(=O)Nc1ccc([N+](=O)[O-])cc1.Cl (centres unmarked) [Substrate 6] (H-Phe-[Pip]-[Nle]-pNA; configuration not given here)
water solubility [8]: restricted water solubility

CCCC[C@H](NC(=O)[C@@H]1CCCN1C(=O)[C@H](N)Cc1ccccc1)C(=O)Nc1ccc([N+](=O)[O-])cc1.Cl [Substrate 7] (H-[dF]-Pro-[Nle]-pNA)
water solubility [8]: restricted water solubility

COC(=O)CC(=O)N[C@H](C(=O)N[C@@H](CCCNC(=N)N)C(=O)Nc1ccc([N+](=O)[O-])cc1)C(C)C.Cl [MZ-Val-Arg-pNA.HCl]
rate of hydrolysis for thrombin (thrombin [6]): 0.21 | Km (factor Xa [1]): 2570 µM | kcat (factor Xa [1]): 6.42 s⁻¹ | kcat /Km (factor Xa [1]): 2500 M/s | Km (human α-thrombin [2]): 1010 µM | kcat (human α-thrombin [2]): 14.4 s⁻¹ | kcat /Km (human α-thrombin [2]): 14300 M/s | rate of hydrolysis for plasmin (plasmin): 0.08 | rate of hydrolysis for Factor Xa (Factor Xa [7]): 0.03 | Factor Xa kcat (factor Xa [3]): 10.1 s⁻¹ | Factor Xa kcat /Km (factor Xa [3]): 2470 M/s | Km (factor Xa [3]): 4080 µM | Km (thrombin [4]): 1010 µM | Thrombin kcat (thrombin [4]): 14.4 s⁻¹ | Thrombin kcat /Km (thrombin [4]): 14300 M/s | rate of hydrolysis for protein C (protein C): 0.12

CC(=O)NCC(=O)N[C@H](C(=O)N[C@@H](CCCNC(=N)N)C(=O)CCl)C(C)C [Ac-Gly-Val-Arg-CH2 Cl] (Ac-Gly-Val-Arg-CH2Cl)
ki value, times lower than that for D-Phe-Pro-Arg-CH2 Cl (thrombin [9]): 3×10^4

COC(=O)CC(=O)N1C[C@H](O)C[C@H]1C(=O)N[C@@H](CCCNC(=N)N)C(=O)Nc1ccc([N+](=O)[O-])cc1 [CH3 O--CO--CH2 --CO-L-4Hyp-L-Arg-pNA]
rate of hydrolysis for thrombin (thrombin [6]): 0.61 | rate of hydrolysis for plasmin (plasmin): 1.12 | rate of hydrolysis for Factor Xa (Factor Xa [7]): 0.34 | rate of hydrolysis for protein C (protein C): 0.88

CC(C)[C@H](NC(=O)c1ccccc1)C(=O)N[C@@H](CCCNC(=N)N)C(=O)Nc1ccc([N+](=O)[O-])cc1 [benzoyl-Val-Arg-p-nitroanilide] (Bz-Val-Arg-pNA)
factor by which poorer substrate for thrombin than Benzoyl-Phe-Val-Arg-p-nitroanilide (thrombin [5]): ≥ 100

COC(=O)CC(=O)NC(C)(C)C(=O)N[C@@H](CCCNC(=N)N)C(=O)Nc1ccc([N+](=O)[O-])cc1.Cl [MZ-Aib-Arg-pNA.HCl, malonyl-α-aminoisobutyryl-arginine p-nitroanilide methyl ester monohydrochloride]
Km (human α-thrombin [10]): 830 µM | kcat (human α-thrombin [10]): 0.46 s⁻¹ | kcat /Km (human α-thrombin [10]): 554 M/s | rate of hydrolysis for thrombin (thrombin [6]): 0.04 | Km (thrombin [11]): 830 µM | Thrombin kcat (thrombin [11]): 0.46 s⁻¹ | Thrombin kcat /Km (thrombin [11]): 554 M/s | Factor Xa kcat (factor Xa [12]): 2.9 s⁻¹ | Factor Xa kcat /Km (factor Xa [12]): 738 M/s | Km (factor Xa [12]): 3940 µM | Km (factor Xa [13]): 3940 µM | kcat (factor Xa [13]): 2.9 s⁻¹ | kcat /Km (factor Xa [13]): 738 M/s | rate of hydrolysis for plasmin (plasmin): 0.02 | rate of hydrolysis for Factor Xa (Factor Xa [7]): 0.01 | rate of hydrolysis for protein C (protein C): 0.03

Cl.N=C(N)NCCC[C@H](NC(=O)CNS(=O)(=O)c1ccc2ccccc2c1)C(=O)Nc1ccc([N+](=O)[O-])cc1 [Substrate 25]
water solubility [8]: restricted water solubility
